Reference: US11566007B2, “Ras inhibitors” (Revolution Medicines, Inc., priority 2019, dated 2023)

Columns and labels:
[1] = target: KRAS G12S (Homo sapiens (Human), UniProt P01116+P62937, G12S); assay: Ras-Raf (BRAF RBD) disruption / FRET / MOA assay, KRAS G12S; assay type: biochemical; settings: Ras-Raf disruption/FRET/MOA assay; class symbols; read-out: KRAS G12S FRET data IC50
In short: (§1)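 Ternary complex formation (Ras–compound–cyclophilin A) displacing BRAF RBD, monitored by TR-FRET. Three hours at 25° C with compound (top 30 μM final), then 1.5 h with the labelled antibodies. Lower ratio than DMSO indicates disruption; IC50 reported.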

[2] = test system: NCI-H358 (K-Ras G12C); assay: CellTiter-Glo cell viability assay, NCI-H358; assay type: cell-based, human; settings: Homo sapiens, NCI-H358, 120 h, NCI-H358, 5-day treatment; class symbols; read-out: Additional H358 Cell Viability assay data (K-Ras G12C, IC50)
In short: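 Luminescent viability readout on day 5 after direct compound addition to plated cells; plates sat ~30 min at room temperature before reading. Values expressed as percent of mean DMSO signal, curves fit with a four-parameter logistic model.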

[3] = target: KRAS G13D (Homo sapiens (Human), UniProt P01116+P62937, G13D); assay: Ras-Raf (BRAF RBD) disruption / FRET / MOA assay, KRAS G13D; assay type: biochemical; settings: read-out: IC50* KRAS G13D FRET data
In short: as §1

[4] = test system: NCI-H358 cells (K-Ras G12C); assay: Potency assay: pERK in NCI-H358 cells; assay type: cell-based, human; settings: Homo sapiens, NCI-H358; H358 KRAS G12C; read-out: pERK EC50
In short: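 Compounds are dosed as ten 3-fold dilutions from a 10 mM DMSO stock, in duplicate, and left on cells for 4 h at 37 °C, 5% CO2. Phospho-ERK1/2 is then quantified by AlphaLISA SureFire Ultra or In-Cell Western, and IC50 is derived from a 4-parameter sigmoid against log concentration.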

[5] = target: KRAS G12D (Homo sapiens (Human), UniProt P01116+P62937, G12D); assay: Ras-Raf (BRAF RBD) disruption / FRET / MOA assay, KRAS G12D; assay type: biochemical; settings: Ras-Raf disruption/FRET/MOA assay; class symbols; read-out: KRAS G12D FRET data IC50
In short: as §1

[6] = target: KRAS WT (Homo sapiens (Human), UniProt P01116+P62937); assay: Ras-Raf (BRAF RBD) disruption / FRET / MOA assay, KRAS WT; assay type: biochemical; settings: read-out: IC50* KRAS WT FRET data
In short: as §1

[7] = target: K-Ras G12C (Homo sapiens (Human), UniProt P01116+P62937, G12C); assay: Ras-Raf (BRAF RBD) disruption / FRET / MOA assay, KRAS G12C; assay type: biochemical; settings: KRAS G12C; Ras-Raf disruption/FRET/MOA assay; read-out: IC50* KRAS G12C FRET data
In short: as §1

[8] = target: K-Ras G13C (Homo sapiens (Human), UniProt P01116+P62937, G13C); assay: Ras-Raf (BRAF RBD) disruption / FRET / MOA assay, KRAS G13C; assay type: biochemical; settings: KRAS G13C; Ras-Raf disruption/FRET/MOA assay; read-out: IC50* KRAS G13C FRET data
In short: as §1

[9] = target: KRAS G12V (Homo sapiens (Human), UniProt P01116+P62937, G12V); assay: Ras-Raf (BRAF RBD) disruption / FRET / MOA assay, KRAS G12V; assay type: biochemical; settings: read-out: IC50* KRAS G12V FRET data
In short: as §1

[10] = target: NRAS G12C (Homo sapiens (Human), UniProt P01111+P62937, G12C); assay: Ras-Raf (BRAF RBD) disruption / FRET / MOA assay, NRAS G12C; assay type: biochemical; settings: read-out: IC50* NRAS G12C FRET data
In short: as §1

Sequence of KRAS G12V (P01116-2 other isoform, or with tags, fused parts or gaps G12V): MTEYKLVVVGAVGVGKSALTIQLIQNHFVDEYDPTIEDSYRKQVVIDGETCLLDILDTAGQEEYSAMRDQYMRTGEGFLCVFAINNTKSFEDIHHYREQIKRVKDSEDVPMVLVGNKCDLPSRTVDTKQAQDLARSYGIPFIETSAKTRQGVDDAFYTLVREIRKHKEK
Sequence of KRAS G12V (P62937 whole entry): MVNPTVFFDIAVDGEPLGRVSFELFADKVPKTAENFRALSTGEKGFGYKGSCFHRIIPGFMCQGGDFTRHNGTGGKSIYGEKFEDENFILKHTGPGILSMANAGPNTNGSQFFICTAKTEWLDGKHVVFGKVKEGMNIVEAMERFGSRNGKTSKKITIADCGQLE
Sequence of K-Ras G13C (P01116-2 other isoform, or with tags, fused parts or gaps G13C): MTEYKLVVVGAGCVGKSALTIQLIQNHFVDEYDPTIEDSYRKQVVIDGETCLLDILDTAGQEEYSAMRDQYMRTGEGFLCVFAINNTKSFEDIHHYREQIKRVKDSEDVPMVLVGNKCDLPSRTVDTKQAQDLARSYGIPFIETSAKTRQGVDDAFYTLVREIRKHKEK
Sequence of K-Ras G13C (P62937 whole entry): as the sequence (P62937 whole entry) above
Sequence of KRAS G12D (P01116-2 other isoform, or with tags, fused parts or gaps G12D): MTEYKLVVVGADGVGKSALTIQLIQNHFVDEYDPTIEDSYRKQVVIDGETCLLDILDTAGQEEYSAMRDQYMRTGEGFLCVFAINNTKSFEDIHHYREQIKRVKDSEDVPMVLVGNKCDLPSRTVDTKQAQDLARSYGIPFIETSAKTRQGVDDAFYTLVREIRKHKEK
Sequence of KRAS G12D (P62937 whole entry): as the sequence (P62937 whole entry) above
Sequence of KRAS G12S (P01116-2 other isoform, or with tags, fused parts or gaps G12S): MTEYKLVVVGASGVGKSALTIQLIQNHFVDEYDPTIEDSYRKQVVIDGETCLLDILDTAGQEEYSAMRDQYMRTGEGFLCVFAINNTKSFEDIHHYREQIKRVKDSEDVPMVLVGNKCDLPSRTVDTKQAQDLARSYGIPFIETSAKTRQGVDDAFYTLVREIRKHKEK
Sequence of KRAS G12S (P62937 whole entry): as the sequence (P62937 whole entry) above
Sequence of KRAS G13D (P01116-2 other isoform, or with tags, fused parts or gaps G13D): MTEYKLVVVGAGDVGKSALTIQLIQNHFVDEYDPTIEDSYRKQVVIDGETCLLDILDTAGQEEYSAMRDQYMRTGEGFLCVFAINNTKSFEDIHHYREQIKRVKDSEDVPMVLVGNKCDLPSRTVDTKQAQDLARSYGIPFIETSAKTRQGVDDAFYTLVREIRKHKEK
Sequence of KRAS G13D (P62937 whole entry): as the sequence (P62937 whole entry) above
Sequence of KRAS WT (P01116-2 other isoform, or with tags, fused parts or gaps): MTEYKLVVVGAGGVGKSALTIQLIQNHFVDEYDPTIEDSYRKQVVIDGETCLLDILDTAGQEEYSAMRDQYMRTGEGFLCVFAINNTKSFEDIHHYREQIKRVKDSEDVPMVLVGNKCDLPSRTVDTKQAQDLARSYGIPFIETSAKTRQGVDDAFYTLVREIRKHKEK
Sequence of KRAS WT (P62937 whole entry): as the sequence (P62937 whole entry) above
Sequence of K-Ras G12C (P01116-2 other isoform, or with tags, fused parts or gaps G12C): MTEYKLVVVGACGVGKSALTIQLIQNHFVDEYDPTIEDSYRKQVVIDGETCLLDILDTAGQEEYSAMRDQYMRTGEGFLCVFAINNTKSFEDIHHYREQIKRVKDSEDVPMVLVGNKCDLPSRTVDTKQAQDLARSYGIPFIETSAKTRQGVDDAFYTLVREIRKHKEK
Sequence of K-Ras G12C (P62937 whole entry): as the sequence (P62937 whole entry) above
Sequence of NRAS G12C (P01111 whole entry G12C): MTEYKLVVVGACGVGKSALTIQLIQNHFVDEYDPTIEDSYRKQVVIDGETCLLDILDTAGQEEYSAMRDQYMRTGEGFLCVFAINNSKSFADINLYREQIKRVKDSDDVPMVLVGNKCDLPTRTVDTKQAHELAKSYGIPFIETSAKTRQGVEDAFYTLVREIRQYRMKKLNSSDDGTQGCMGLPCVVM
Sequence of NRAS G12C (P62937 whole entry): as the sequence (P62937 whole entry) above

Row | IC50 [1] | IC50 [2] | IC50 [3] | EC50 [4] | IC50 [5] | IC50 [6] | IC50 [7] | IC50 [8] | IC50 [9] | IC50 [10] | SMILES
1 | 1000 to 10000 nM | 10 to 100 nM | 1000 to 10000 nM | < 5000 nM | > 10000 nM | 1000 to 10000 nM | 10 to 100 nM | 100 to 1000 nM | 100 to 1000 nM | 100 to 1000 nM | CCn1c(-c2cccnc2COC)c2c3cc(ccc31)-c1cc(O)cc(c1)C[C@H](NC(=O)[C@H](C(C)C)N(C)C(=O)[C@H]1CCN(C(=O)C#CC3(N(C)C)CC3)C1)C(=O)N1CCC[C@H](N1)C(=O)OCC(C)(C)C2 [Example A238]
2 | 10 to 100 nM | < 10 nM | 100 to 1000 nM | < 5000 nM | 100 to 1000 nM | 100 to 1000 nM | < 10 nM | 10 to 100 nM | 10 to 100 nM | < 10 nM | CCn1c(-c2cccnc2[C@H](C)OC)c2c3cc(ccc31)-c1cc(O)cc(c1)C[C@H](NC(=O)[C@H](C(C)C)N(C)C(=O)[C@H]1CCN(C(=O)C#CCOC)C1)C(=O)N1CCC[C@H](N1)C(=O)OCC(C)(C)C2 [Example A266]
3 | > 10000 nM | > 1000 nM | > 10000 nM | < 5000 nM | > 10000 nM | > 10000 nM | 1000 to 10000 nM | > 10000 nM | > 10000 nM | > 10000 nM | C=CC(=O)N1CC[C@H](C(=O)N(C)[C@H](C(=O)N[C@@H]2C(=O)N3CCC[C@H](N3)C(=O)OCC(C)(C)Cc3c(-c4cncnc4)n(CC)c4ccc(cc34)-c3cccc(c3)[C@H]2O)C(C)C)C1 [Example A272]
4 | > 10000 nM | 100 to 1000 nM | > 10000 nM | < 5000 nM | > 10000 nM | > 10000 nM | 1000 to 10000 nM | > 10000 nM | > 10000 nM | 1000 to 10000 nM | C=CC(=O)N1CC[C@H](C(=O)N(C)[C@H](C(=O)N[C@H]2Cc3cc(O)cc(c3)-c3ccc4c(c3)c(c(-c3cnccc3[C@@H](OC)C3CC3)n4CC)CC(C)(C)COC(=O)[C@@H]3CCCN(N3)C2=O)C(C)C)C1 [Example A274]
5 | 1000 to 10000 nM | 10 to 100 nM | 1000 to 10000 nM | < 5000 nM | 1000 to 10000 nM | 1000 to 10000 nM | 100 to 1000 nM | 1000 to 10000 nM | 1000 to 10000 nM | 100 to 1000 nM | CCn1c(-c2cccnc2[C@H](C)OC)c2c3cc(ccc31)-c1csc(n1)C[C@H](NC(=O)[C@H](C(C)C)N(C)C(=O)[C@H]1CCC(C(=O)/C=C/CN(C)C)C1)C(=O)N1CCC[C@H](N1)C(=O)OCC(C)(C)C2 (some centres unmarked) [Example A282]

Row | SMILES | IC50 [1] | IC50 [2] | IC50 [3] | EC50 [4] | IC50 [5] | IC50 [6] | IC50 [7] | IC50 [8] | IC50 [9] | IC50 [10]
6 | C=CC(=O)N1CC[C@H](C(=O)N(C)c2ccccc2C(=O)N[C@H]2Cc3cc(O)cc(c3)-c3ccc4c(c3)c(c(-c3cnccc3COC)n4CC)CC(C)(C)COC(=O)[C@@H]3CCCN(N3)C2=O)C1 [Example A228] | > 10000 nM | > 1000 nM | > 10000 nM | < 5000 nM | > 10000 nM | > 10000 nM | 1000 to 10000 nM | > 10000 nM | > 10000 nM | 1000 to 10000 nM
7 | C=CC(=O)N1CC(OC[C@H](C(=O)N[C@H]2Cc3cc(O)cc(c3)-c3ccc4c(c3)c(c(-c3cccnc3COC)n4CC)CC(C)(C)COC(=O)[C@@H]3CCCN(N3)C2=O)C(C)C)C1 [Example A232] | > 10000 nM | 10 to 100 nM | 1000 to 10000 nM | < 5000 nM | > 10000 nM | 1000 to 10000 nM | 100 to 1000 nM | 100 to 1000 nM | 1000 to 10000 nM | 100 to 1000 nM
8 | CCn1c(-c2cccnc2COC)c2c3cc(ccc31)-c1cc(O)cc(c1)C[C@H](NC(=O)[C@H](C(C)C)N(C)C(=O)[C@H]1CCN(C(=O)C#CCN3[C@H](C)COC[C@@H]3C)C1)C(=O)N1CCC[C@H](N1)C(=O)OCC(C)(C)C2 [Example A237] | 100 to 1000 nM | < 10 nM | 1000 to 10000 nM | < 5000 nM | 1000 to 10000 nM | 1000 to 10000 nM | 10 to 100 nM | 100 to 1000 nM | 100 to 1000 nM | 10 to 100 nM
